Data published in paper PMC10056611, “Synthesis and Biological Evaluation of 3-Amino-4,4-Dimethyl Lithocholic Acid Derivatives as Novel, Selective, and Cellularly Active Allosteric SHP1 Activators” (Molecules, 2023).

Experiments:
[1] = test system: acute promyelocytic leukemia (APL) cell line NB4; experiment: CCK8 cell viability assay, NB4; assay type: cell-based; conditions: Homo sapiens, NB-4, NB4 cells, 72 h
Description: (§1) Acute lymphoblastic leukemia (ALL) cell line RS4;11 (2.5 × 10^4 cells per well), acute promyelocytic leukemia (APL) cell line NB4 (1 × 10^4 cells per well), and non-small cell lung cancer (NSCLC) cell line NCI-H1299 (1.5 × 10^3 cells per well) were seeded into 96-well plates. After treatment with different concentrations of drugs, the cells were incubated in quadruple for 72 h. Thereafter, a 10 μL CCK8 solution was added to each well. After a 3 h incubation at 37 °C, the plates were read for absorbance at 450 nm and 650 nm using a SpectraMax Molecular Devices microplate reader. The final data were calibrated by OD450 nm-OD650 nm. The inhibition rates of proliferation were calculated with the following equation:Inhibition ratio = (ODDMSO-ODCompd)/(ODDMSO-ODblank) × 100%.(1)
(§2) The concentrations of the compounds that inhibited cell growth by 50% (IC50) were calculated using GraphPad Prism version 5.0. NVP-2 was used as a positive control.

SHP2 = target: T1, SHP2 (Homo sapiens, UniProt Q06124); experiment: SHP2 enzyme assay (DiFMUP fluorogenic substrate), activation; assay type: biochemical
T1 sequence (Q06124 1-593): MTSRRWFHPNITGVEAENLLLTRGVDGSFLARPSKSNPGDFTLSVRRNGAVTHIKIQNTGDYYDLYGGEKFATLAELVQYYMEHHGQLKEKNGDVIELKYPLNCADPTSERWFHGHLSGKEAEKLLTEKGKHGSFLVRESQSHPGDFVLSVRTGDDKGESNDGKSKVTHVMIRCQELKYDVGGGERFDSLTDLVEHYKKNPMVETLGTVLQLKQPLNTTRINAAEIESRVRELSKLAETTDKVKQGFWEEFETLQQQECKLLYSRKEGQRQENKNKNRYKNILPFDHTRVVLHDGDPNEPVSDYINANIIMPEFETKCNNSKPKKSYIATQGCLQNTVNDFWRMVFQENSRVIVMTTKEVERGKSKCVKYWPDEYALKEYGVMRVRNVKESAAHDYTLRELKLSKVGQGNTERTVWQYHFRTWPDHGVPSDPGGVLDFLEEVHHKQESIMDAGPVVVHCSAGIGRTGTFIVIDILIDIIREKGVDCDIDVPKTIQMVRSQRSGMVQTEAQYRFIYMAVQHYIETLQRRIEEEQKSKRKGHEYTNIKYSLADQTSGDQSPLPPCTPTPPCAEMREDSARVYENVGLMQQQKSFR
Description: (§3) The proteins SHP1 and SHP2, containing a GST-tag, were expressed in E. coli. 6,8-Difluoro-4-methylumbelliferyl phosphate (DiFMUP) was used as the fluorogenic substrate. Fluorescence data were collected by the Envision (PerkinElmer, Waltham, MA, USA) plate reader, using excitation and emission wavelengths of 358 and 455 nm, respectively. A sigmoidal dose-response curve was fitted to the data, and the EC50 values were calculated using GraphPad Prism. In the data processing, the fitting and curves were calculated using nonlinear regression, and the fold value of the compound was calculated using the software GraphPad Prism 8. The folds were obtained according to the equation: Y = Bottom + (Top-Bottom)/(1 + 10^((LogEC50-X) × HillSlope)). The data represent mean values ± standard error of the mean (SEM) of eight-point experiments, each performed in triplicates from three independent experiments.

[2] = test system: acute lymphoblastic leukemia (ALL) cell line RS4;11; experiment: CCK8 cell viability assay, RS4;11; assay type: cell-based; conditions: Homo sapiens, RS4-11, 72 h, RS4;11 cells
Description: as §1, §2

SHP1 = SHP1 (Homo sapiens, UniProt P29350); experiment: SHP1 enzyme assay (DiFMUP fluorogenic substrate), activation; assay type: biochemical
Excerpt: The SHP1-activating effects of the synthetic compounds were examined by the 6,8-difluoro-4-methylumbelliferyl phosphate (DiFMUP) assay.
as §3

[3] = test system: non-small cell lung cancer (NSCLC) cell line NCI-H1299; experiment: CCK8 cell viability assay, NCI-H1299; assay type: cell-based; conditions: Homo sapiens, NCI-H1299 cells, 72 h
Description: as §1, §2

SHP1, sequence (P29350 whole entry): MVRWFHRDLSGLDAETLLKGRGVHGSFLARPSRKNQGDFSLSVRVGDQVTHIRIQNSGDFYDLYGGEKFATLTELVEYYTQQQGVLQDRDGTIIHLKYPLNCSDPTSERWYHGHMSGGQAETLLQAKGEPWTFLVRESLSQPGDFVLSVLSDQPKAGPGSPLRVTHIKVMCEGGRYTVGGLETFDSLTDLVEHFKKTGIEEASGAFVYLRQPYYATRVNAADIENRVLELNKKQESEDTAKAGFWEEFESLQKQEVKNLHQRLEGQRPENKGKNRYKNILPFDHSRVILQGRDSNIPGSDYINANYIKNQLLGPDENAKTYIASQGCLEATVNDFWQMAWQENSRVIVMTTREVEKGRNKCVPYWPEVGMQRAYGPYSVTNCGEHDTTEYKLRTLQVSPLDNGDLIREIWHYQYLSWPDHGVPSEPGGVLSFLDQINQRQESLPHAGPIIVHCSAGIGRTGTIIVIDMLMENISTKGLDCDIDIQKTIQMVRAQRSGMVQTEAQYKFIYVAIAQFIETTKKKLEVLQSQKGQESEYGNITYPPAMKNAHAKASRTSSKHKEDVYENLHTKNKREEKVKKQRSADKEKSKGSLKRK

Structure (SMILES): C[C@H](COc1ccc(NC(=O)Nc2ccc(Cl)c(C(F)(F)F)c2)cc1)[C@H]1CCC2C3CC=C4C(C)(C)C(N)CC[C@]4(C)C3CC[C@@]21C (stereo partly drawn) [Compound 5ba]
- melting point: 197.1 to 198.6 °C
- IC50 [1]: 3.74 ± 0.39 µM
- EC50 (SHP2; DiFMUP assay): > 50 µM
- selectivity for SHP1 over SHP2 (SHP2; ratio of EC50 values, SHP2 vs SHP1): more than 32 fold
- IC50 [2]: 4 ± 0.22 µM
- EC50 (SHP1; DiFMUP assay, mean ± SEM): 1.54 ± 0.24 µM
- Maximum Activation Fold (SHP1; DiFMUP assay, mean ± SEM): 7.63 ± 0.20 fold
- increase in potency compared to 5aw (SHP1; SHP1 EC50 ratio vs 5aw): ~23 times
- IC50 [3]: 5.51 ± 0.23 µM
